Measured values as given in publication PMC11126801 (The Journal of Biological Chemistry, 2024).
One block for each molecule: values may come before it.

Tests used:
HCN3 [1] = target: T1, HCN3 (Homo sapiens, UniProt Q9P1Z3); test: whole-cell patch clamp of HCN3 currents in transfected HeLa cells; type: cell-based; parameters: human HCN3 (WT) expressed in HeLa cells
T1 sequence (Q9P1Z3 1-774): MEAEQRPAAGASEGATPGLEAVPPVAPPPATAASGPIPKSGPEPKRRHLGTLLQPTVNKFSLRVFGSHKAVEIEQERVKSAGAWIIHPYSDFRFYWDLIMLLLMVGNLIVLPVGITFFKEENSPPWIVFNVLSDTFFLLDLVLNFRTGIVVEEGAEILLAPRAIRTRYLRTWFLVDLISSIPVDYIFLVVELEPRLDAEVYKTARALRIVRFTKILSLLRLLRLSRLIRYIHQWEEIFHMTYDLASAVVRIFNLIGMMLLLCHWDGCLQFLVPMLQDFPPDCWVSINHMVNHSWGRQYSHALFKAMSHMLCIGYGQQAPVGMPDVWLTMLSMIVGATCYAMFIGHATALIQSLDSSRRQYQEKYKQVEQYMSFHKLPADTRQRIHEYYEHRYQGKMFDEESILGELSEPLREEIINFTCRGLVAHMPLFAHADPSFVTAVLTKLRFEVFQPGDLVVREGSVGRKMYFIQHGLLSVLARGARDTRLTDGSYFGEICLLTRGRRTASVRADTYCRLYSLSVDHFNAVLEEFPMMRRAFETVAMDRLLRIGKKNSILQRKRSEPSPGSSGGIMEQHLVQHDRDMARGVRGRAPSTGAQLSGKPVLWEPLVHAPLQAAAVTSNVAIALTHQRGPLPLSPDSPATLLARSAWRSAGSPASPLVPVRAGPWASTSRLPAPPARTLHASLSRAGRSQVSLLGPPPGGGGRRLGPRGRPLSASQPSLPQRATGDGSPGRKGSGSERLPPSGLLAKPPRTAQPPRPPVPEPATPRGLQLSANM

HCN3 [2] = target: T1, HCN3; test: cryo-EM structure of the apo channel ([…] Å) with CHS density; IC50 by whole-cell patch clamp; type: cell-based
[3] = target: the molecule itself; test: cryo-EM structure; single-particle cryo-EM of MBP-HCN3 in 0.1% digitonin, 300 mM KCl, 2 mM DTT, 20 mM Tris pH 8.0; ligand-free sample and sample with 5 mM cAMP; final refinement in C4 symmetry

Molecule: CC(C)CCC[C@@H](C)[C@H]1CC[C@H]2[C@@H]3CC=C4C[C@@H](O)CC[C@]4(C)[C@H]3CC[C@]12C [cholesterol]
IC50 (HCN3 [1]): 480 µM

IC50 (HCN3 [2]): 1450 µM
Molecule: CC(C)CCC[C@@H](C)[C@H]1CC[C@H]2[C@@H]3CC=C4C[C@@H](OC(=O)CCC(=O)O)CC[C@]4(C)[C@H]3CC[C@]12C [cholesteryl hemisuccinate]

B1: full-length wild-type human HCN3 with its N terminus fused to maltose-binding protein (MBP) (natural protein, UniProt Q9P1Z3 1-774, looked up)
chain: T1 sequence (Q9P1Z3 1-774)
notes: the tag was not cleaved for the structures; Modelled residues: 50-151, 156-191, 210-476, 484-543 (apo); also 477-483 with cAMP; also called HCN3 channel; apo-HCN3; source: HEK293S cells, BacMam transduction, purified (MBP beads, Superose 6 SEC, digitonin); not shown: MBP, N-terminal, kept
stoichiometry N [3]: 4
